Assay type in all cases: cell-based
The target in test [1] is T1, GPR139 L87A2x64 (Homo sapiens, UniProt Q6DWJ6, L87A).
T1 construct: mGluR5 signal peptide (N); expressed in transfected cells; host or cells: HEK293
T1 sequence (Q6DWJ6 2-353 L87A limits assumed): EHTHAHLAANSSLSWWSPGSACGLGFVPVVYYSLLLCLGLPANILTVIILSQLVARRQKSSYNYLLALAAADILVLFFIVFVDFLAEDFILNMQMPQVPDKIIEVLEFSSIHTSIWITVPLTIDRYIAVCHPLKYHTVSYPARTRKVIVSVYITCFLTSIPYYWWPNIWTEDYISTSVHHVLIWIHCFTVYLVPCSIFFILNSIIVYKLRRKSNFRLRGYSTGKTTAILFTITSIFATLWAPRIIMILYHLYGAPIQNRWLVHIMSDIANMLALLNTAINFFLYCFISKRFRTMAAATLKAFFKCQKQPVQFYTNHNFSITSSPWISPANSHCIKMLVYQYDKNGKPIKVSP
As to the kind of experiment: Fluo-4 Ca2+-assay, GPR139 mutant L87A. An excerpt: (§1) To study the influence of specific amino acids in the predicted binding pocket on receptor function, the desired mutations were introduced into an N-terminally c-myc-tagged wild type human GPR139 (NM_001002911.3) in the pEGFP-N1 vector (BD Biosciences)[32], [33]. As previously described, these plasmids carry the signal peptide of mGluR5 to promote cell surface expression followed by a c-myc epitope to enable detection of total and surface expression by ELISA, followed by an engineered MluI and NotI site for easy insertion of the receptor of interest. Furthermore, the start-codon in the GPR139 sequence was deleted to ensure c-myc-tagging. Mutagenesis was designed in Serial Cloner 2.6 (© Franck Perez [SerialBasics]) and carried out by GenScript (USA). All mutated residues are illustrated in Supplementary Fig. 1b. An untagged GPR139(WT) in pEGFP-N1 was also generated to ensure that the c-myc-tag had no influence on GPR139(WT) function.
All GPR139 mutants were transfected into HEK293 cells. The HEK293 cells were grown in Dulbecco’s modified Eagle’s medium (DMEM) (Gibco, 41965) supplemented with 10% dialyzed fetal bovine serum (Gibco, 26400, United States origin), 100 units/mL penicillin and 100 μg/mL streptomycin (Gibco, 15140). HEK293 cells were reverse transfected using Lipofectamine2000 (Invitrogen). […]
(§2) The Ca^2+ measurements were preformed using the Fluo-4 NW Calcium Assay Kit (Invitrogen, Molecular Probes, F36206) as previously described. […] Intracellular calcium changes were recorded as indicated on either a NOVOstar (BMG Labtech) at 37 °C with an excitation filter of 485 nm and an emission filters 520 nm or a FlexStation 3 Benchtop Multi-Mode Microplate Reader (Molecular Devices) at 37 °C with an excitation wavelength of 485 nm and emission of 525 nm.
(§3) All pharmacological data have been analyzed by using Prism 6.0 (GraphPad Software Inc., San Diego). […] Changes in potency (pEC50) and span of myc-GPR139(WT) in comparison to untagged GPR139(WT) was statistically analyzed with a paired t-test and significance was accepted at p < 0.05. […]

Test [2] has as its target T2, GPR139 L87F2x64 (Homo sapiens, UniProt Q6DWJ6, L87F).
T2 construct: mGluR5 signal peptide (N); expressed in transfected cells; host or cells: HEK293
T2 sequence (Q6DWJ6 2-353 L87F limits assumed): T1 sequence (Q6DWJ6 2-353 L87A limits assumed) with A86F
The experiment in a line: Fluo-4 Ca2+-assay, GPR139 mutant L87F.
Text: as §1, with “Mutagenesis was designed in Serial Cloner 2.6 (© Franck Perez [SerialBasics]) and carried out by GenScript (USA). All mutated residues are illustrated in Supplementary Fig. 1b. An untagged GPR139(WT) in pEGFP-N1 was also generated to ensure that the c-myc-tag had no influence on GPR139(WT) function.” left out
as §2, §3

Test [3] deals with T3, GPR139 H113A3x37 (Homo sapiens, UniProt Q6DWJ6, H113A).
T3 construct: mGluR5 signal peptide (N); expressed in transfected cells; host or cells: HEK293
T3 sequence (Q6DWJ6 2-353 H113A limits assumed): T1 sequence (Q6DWJ6 2-353 L87A limits assumed) with A86L, H112A
As to the kind of experiment: Fluo-4 Ca2+-assay, GPR139 mutant H113A.
Text: as §1, with “Mutagenesis was designed in Serial Cloner 2.6 (© Franck Perez [SerialBasics]) and carried out by GenScript (USA). All mutated residues are illustrated in Supplementary Fig. 1b. An untagged GPR139(WT) in pEGFP-N1 was also generated to ensure that the c-myc-tag had no influence on GPR139(WT) function.” left out
as §2, §3

Positions count from the first letter of the chain named.

Broadly, the EC50 is the concentration that produces a half-maximal response. Read a low EC50 as greater potency. Usually Emax stands for the maximal effect, on the per cent scale that the assay sets. Regarding `COc1cc(OC)cc(C(=O)NNC(=O)Nc2cccc3ccccc23)c1` [Compound 1a], the figures for the EC50 in test [1] (L87A mutant), in test [2] (L87F mutant) and in test [3] (H113A mutant) were 479 nM, 427 nM and 851 nM, respectively. Also, the change of potency entry in test [1] (L87A mutant versus WT (reduced surface expression)) is reported as “equipotent”. In addition, the Emax was determined as 75 ± 17% in test [1] (L87A, normalized to buffer (0%) and 8 µM 1a (100%)); 97 ± 14% in test [2] (L87F, normalized to buffer (0%) and 8 µM 1a (100%)); 97 ± 9% in test [3] (H113A, normalized to buffer (0%) and 8 µM 1a (100%)).

Values taken from paper PMC5430874 (Scientific Reports, 2017).
